Earlier results as cited in US12708633B2, “Cannabidiol-dominant formulations, methods of manufacturing, and uses thereof” (Tilray Brands, Inc., priority 2021, dated 2026).

Assays:
[1] = due to high intestinal permeability and low aqueous solubility
[2] = humans

## C=C(C)[C@@H]1CCC(C)=C[C@H]1c1c(O)cc(CCCCC)cc1O [CBD, Cannabidiol]
[1]
  Biopharmaceutical Classification System (BCS) class: Class II
[2]
  oral bioavailability: low
